Experiments:
[1] = system: anti-SRBC specific antibodies production by B lymphocytes; format: in vivo, mouse; settings: Table 12, positive control given i.p., ICR mice, dosage 4 mg/kg
[2] = system: DNFB-induced mouse DTH response; experiment: DNFB-induced mouse delayed type hypersensitivity response (DTH); format: in vivo; settings: Table 8, i.p., Balb/c mice, dosage 1000 (mg/kg)
Description: Female Balb/c mice (age of 6-8 wk) were randomly divided into groups and immunized with 20 μl 0.5% DNFB solution in absolute acetone-olive oil (4:1) on each hind foot on day 0 and 1;
7-9 days after the initial immunization, mice were boosted with 10 μl 0.4% DNFB on both sides of the left ear, whereas the right ear was treated with vehicle alone;
Compounds were administered intraperitoneally (i.p.) or orally (p.o.) to the mice 1 h before DNFB booster immunization and 12 h later.
Ear swelling and other indexes were assessed 24-48 h after booster immunization.
Note: Female ICR mice (age of 6-8 wk) were immunized with 0.7% DNFB solution and boosted with 0.6% DNFB solution.

T lymphocyte = experiment: ConA induced T-lymphocyte proliferation ([3H]thymidine); format: cell-based, mouse; settings: control 125789
Description: (§1) Mice were sacrificed by cervical dislocation, and spleens were collected under sterile conditions then teased through a nylon mesh. Erythrocytes were lysed. Cells were washed and resuspended at 5×10^6/ml in RPMI-1640 media containing 10% FBS. For one 96 well plate assay, 100 pt of cells, 50 μl of sample and 50 μl of ConA/LPS were added into each well with the final volume 200 μl. The control wells were set up with 50 μl of RPMI-1640 media instead of ConA/LPS.
(§2) Plates were incubated for 48 h (ConA) or 60 h (LPS), respectively, at 37° C., 5% CO2 in a humidified incubator. In the last 8 h of incubation, 25 μl (1.9×10^10 Bq) of [^3H]thymidine was added. After plates were incubated for 48 h, the plates (ConA) were stored at −20° C., then after another 12 h, the plates (LPS) were stored at −20° C.
(§3) At the end of incubation, pulsed cells were harvested on a glass filter using a cell harvester ([…]96®, TOMTEC) and allowed to dry. Incorporation of radioactive thymidine was determined by using liquid Scintillation and Luminescence Counters (MicroBeta Trilux®, PerkinElmer).

B lymphocyte = experiment: LPS induced B-lymphocyte proliferation ([3H]thymidine); format: cell-based, mouse; settings: control 87373
Description: as §1, §2, §3

lymphocyte = experiment: MTT cytotoxic assay; format: cell-based, mouse; settings: control 0.337
Description: Mice were sacrificed by cervical dislocation, and spleens were collected under sterile conditions then teased through a nylon mesh. Erythrocytes were lysed. Cells were washed and resuspended at 5×10^6/ml in RPMI-1640 media supplemented with 10% FBS.
For one 96 well plate assay, 90 μl of cells, 45 μl of sample and 45 μl of RPMI-1640 media with 10% FBS were added into each well with the final volume 180 μl. The negative control wells (containing 90 μl of RPMI-1640 media with 10% FBS and 90 pt of cells), blank control (180 μl of RPMI-1640 media with 10% FBS) were also performed. Incubate plate for 48 hours at 37° C., 5% CO2 in a humidified incubator. 18 μl of MTT solution (5 mg/ml) was added for 6-7 h.
90 μl of MTT lysis solution was added to each well followed by a further incubation at 37° C. for 6-7 h. And the absorbance was measured at 570 nm using a plate reader.

Row | SMILES | Lymphocyte Proliferation (cpm) T cell (T lymphocyte; 10^−6 M) | Lymphocyte Proliferation (cpm) T cell (T lymphocyte; 10^−7 M) | Lymphocyte Proliferation (cpm) T cell (T lymphocyte; 10^−8 M) | Lymphocyte Proliferation (cpm) B cell (B lymphocyte; 10^−6 M) | Lymphocyte Proliferation (cpm) B cell (B lymphocyte; 10^−7 M) | Lymphocyte Proliferation (cpm) B cell (B lymphocyte; 10^−8 M) | melting point | Cytotoxicity OD Value (lymphocyte; 10^−6 M) | Cytotoxicity OD Value (lymphocyte; 10^−7 M) | Cytotoxicity OD Value (lymphocyte; 10^−8 M) | also measured
1 | O=P1(N(CCCl)CCCl)NCCCO1 (stereo not drawn) [CTX, reference compound] | – | – | – | – | – | – | – | – | – | – | QHS OD value ([1]; control 0.38): 0.12; C3 ([1]; control 7.9): 7.5 μg/10 μl; Body weight ([1]; control 23.4): 22.6 g; Thymus ([1]; control 28.8): 28.2 mg; Spleen ([1]; control 55.7): 50.7 mg/10 g; Total IgG ([1]; control 117): 101 μg/10 μl; Body weight after i.p. ([2]; control 21.9): 21.1 g; Body weight before i.p. ([2]; control 22.4): 22.1 g; Ear swelling X ± SD ([2]; control 22.7 ± 2.1): 15.6 ± 8.1 mg; Right ear ([2]; control 26.4): 30.3 mg; Left ear ([2]; control 49.1): 45.9 mg; Spleen ([2]; control 154.0): 141.2 mg
2 | CC(C)[C@]12O[C@H]1[C@@H]1O[C@@]13[C@@]1(C)CCC4=C(COC4=O)C1=C[C@@H]1O[C@@]13C2=O [LLDT-15, Δ^5,6-dehydrotriptonide] | 10296 cpm | 63914 cpm | 69613 cpm | 30889 cpm | 85240 cpm | 77139 cpm | 242 to 244 °C (dec.) | 0.156 | 0.316 | 0.327 | –
3 | CC(C)[C@]12O[C@H]1[C@@H]1O[C@@]13[C@@]1(C)CCC4=C(COC4=O)[C@@]14O[C@H]4[C@@H]1O[C@@]13C2=O [LLDT-16, (5R, 6S)-5,6-epoxytriptonide] | 76204 cpm | 75599 cpm | 89029 cpm | 80768 cpm | 82285 cpm | 71877 cpm | 252 to 254 °C (dec.) | 0.304 | 0.337 | 0.372 | –
4 | CC(C)[C@]12O[C@H]1[C@@H]1O[C@@]13[C@@]1(C)CCC4=C(COC4=O)[C@]1(O)[C@@H](O)[C@@H]1O[C@@]13C2=O [LLDT-17, cis-(5R, 6S)-5,6-dihydroxytriptonide] | 84825 cpm | 67561 cpm | 74069 cpm | 82861 cpm | 76376 cpm | 73969 cpm | 266 to 268 °C (dec.) | 0.310 | 0.355 | 0.334 | –
5 | CC(C)C12OC1C1OC13C1(C)CCC4=C(COC4=O)C1=CC1OC13C2O (stereo not drawn) [LLDT-18, Δ^5,6-dehydrotriptolide] | 462 cpm | 53513 cpm | 92807 cpm | 833 cpm | 75147 cpm | 79808 cpm | – | 0.039 | 0.295 | 0.367 | –
6 | CC(C)[C@]12O[C@H]1[C@@H]1O[C@]13[C@]1(O[C@H]1C=C1C4=C(CC[C@@]13C)C(=O)OC4)[C@H]2O [LLDT-19, Δ^5,6-dehydro-14-epitriptolide] | 79418 cpm | 71177 cpm | 76183 cpm | 82989 cpm | 70587 cpm | 69690 cpm | – | 0.340 | 0.340 | 0.346 | –
7 | CC(C)C12OC1C1OC13C1(OC1C1OC14C1=C(CCC43C)C(=O)OC1)C2O [LLDT-20, (5R, 6S)-5,6-epoxytriptolide] | 25344 cpm | 54771 cpm | 69785 cpm | 63169 cpm | 85145 cpm | 78259 cpm | – | 0.263 | 0.350 | 0.374 | –
8 | CC(C)[C@]12O[C@H]1[C@@H]1O[C@]13[C@]1(O[C@H]1[C@@H]1O[C@@]14C1=C(CC[C@]34C)C(=O)OC1)[C@H]2O [LLDT-21, (5R, 6S)-5,6-epoxy-14-epitriptolide] | 97217 cpm | 73513 cpm | 83465 cpm | 86610 cpm | 75766 cpm | 76181 cpm | – | 0.361 | 0.332 | 0.359 | –
9 | CC(C)C12OC1C1OC13C1(OC1C(O)C1(O)C4=C(CCC13C)C(=O)OC4)C2O [LLDT-22, cis-(5R, 6S)-5,6-dihydroxytriptolide] | 2662 cpm | 68787 cpm | 64367 cpm | 16807 cpm | 89706 cpm | 84748 cpm | – | 0.157 | 0.345 | 0.374 | –
10 | CC(C)C12OC1C1OC13C1(OC1C(O)C1(O)C4=C(CCC13C)C(=O)OC4)C2O [LLDT-23, cis-(5R, 6S)-5,6-dihydroxy-14-epitriptolide] | 55614 cpm | 104791 cpm | 84713 cpm | 99672 cpm | 86481 cpm | 76993 cpm | – | 0.302 | 0.349 | 0.366 | –
